Tests used:
[1] = target: HDAC1 (Homo sapiens (Human), UniProt Q13547); assay: HDAC enzyme activity inhibition (in vitro), HDAC1 Fluorimetric Drug Discovery Assay Kit; assay type: biochemical; settings: samples at 100, 1000 and 10000 nM; 37° C. 60 minutes; fluorescence Ex 390, Em 460
[2] = target: HDAC6 human recombinant (Homo sapiens (Human), UniProt Q9UBN7); assay: HDAC enzyme activity inhibition (in vitro), HDAC6 assay; assay type: biochemical; settings: samples at 0.1, 1, 10, 100 and 1000 nM; 37° C. 60 minutes; fluorescence Ex 390, Em 460
Chain of HDAC6 human recombinant (Q9UBN7 whole entry): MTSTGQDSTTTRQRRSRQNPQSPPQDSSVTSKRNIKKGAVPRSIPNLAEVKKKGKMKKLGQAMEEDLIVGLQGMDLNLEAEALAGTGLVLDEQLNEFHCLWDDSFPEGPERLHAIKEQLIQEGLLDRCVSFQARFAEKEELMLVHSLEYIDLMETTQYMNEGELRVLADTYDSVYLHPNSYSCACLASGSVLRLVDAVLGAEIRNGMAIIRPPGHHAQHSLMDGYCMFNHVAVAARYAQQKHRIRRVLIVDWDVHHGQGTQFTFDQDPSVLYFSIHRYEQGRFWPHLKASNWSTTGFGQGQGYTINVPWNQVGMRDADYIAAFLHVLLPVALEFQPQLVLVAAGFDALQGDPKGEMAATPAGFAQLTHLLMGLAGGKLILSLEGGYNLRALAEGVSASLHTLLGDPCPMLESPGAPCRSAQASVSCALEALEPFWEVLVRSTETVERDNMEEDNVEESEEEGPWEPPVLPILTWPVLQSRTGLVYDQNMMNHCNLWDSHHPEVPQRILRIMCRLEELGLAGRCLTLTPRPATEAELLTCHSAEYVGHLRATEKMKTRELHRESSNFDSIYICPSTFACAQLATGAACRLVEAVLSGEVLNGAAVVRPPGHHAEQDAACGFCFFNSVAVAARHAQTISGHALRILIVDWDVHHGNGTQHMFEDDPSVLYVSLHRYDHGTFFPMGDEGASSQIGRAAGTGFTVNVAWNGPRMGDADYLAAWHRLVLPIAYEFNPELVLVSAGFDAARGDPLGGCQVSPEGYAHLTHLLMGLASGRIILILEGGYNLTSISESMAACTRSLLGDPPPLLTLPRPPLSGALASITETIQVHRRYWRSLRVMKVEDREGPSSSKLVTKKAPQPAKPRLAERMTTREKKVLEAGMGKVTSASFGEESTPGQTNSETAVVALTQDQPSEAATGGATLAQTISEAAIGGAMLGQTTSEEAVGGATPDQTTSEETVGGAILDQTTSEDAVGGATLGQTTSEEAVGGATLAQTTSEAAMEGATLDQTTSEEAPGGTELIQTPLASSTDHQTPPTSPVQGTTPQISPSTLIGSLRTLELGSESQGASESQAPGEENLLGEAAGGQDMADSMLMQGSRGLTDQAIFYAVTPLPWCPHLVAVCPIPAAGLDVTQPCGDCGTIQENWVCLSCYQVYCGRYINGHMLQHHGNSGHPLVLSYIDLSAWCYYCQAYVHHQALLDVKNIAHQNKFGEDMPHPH

Chain of HDAC1 (Q13547 whole entry): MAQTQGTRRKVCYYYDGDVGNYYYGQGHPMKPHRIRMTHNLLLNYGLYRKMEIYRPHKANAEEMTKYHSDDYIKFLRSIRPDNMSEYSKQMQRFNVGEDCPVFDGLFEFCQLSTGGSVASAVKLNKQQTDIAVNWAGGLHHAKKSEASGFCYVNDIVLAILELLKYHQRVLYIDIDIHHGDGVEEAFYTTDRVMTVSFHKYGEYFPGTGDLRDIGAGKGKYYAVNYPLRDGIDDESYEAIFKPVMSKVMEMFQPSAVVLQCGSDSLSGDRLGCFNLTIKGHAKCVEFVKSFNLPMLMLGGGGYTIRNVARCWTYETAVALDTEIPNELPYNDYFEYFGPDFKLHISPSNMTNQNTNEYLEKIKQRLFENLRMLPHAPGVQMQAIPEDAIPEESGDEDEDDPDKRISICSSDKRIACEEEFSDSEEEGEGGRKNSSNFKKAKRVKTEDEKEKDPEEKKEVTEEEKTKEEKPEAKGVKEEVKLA

| IC50 [1] | IC50 [2] | Compound |
| --- | --- | --- |
| > 10000 nM | 52 nM | CC1(C)C(=O)N(Cc2ccc(-c3nnc(C(F)F)o3)cn2)C(=O)c2ccc(N3CCN(c4ncccn4)CC3)cc21 [Compound 50, 2-((5-(5-(difluoromethyl)-1,3,4-oxadiazole-2-yl)pyridine-2-yl)methyl)-4,4-dimethyl-6-(4-(pyrimidine-2-yl)piperazine-1-yl)isoquinoline-1,3(2H,4H)-dione] |
| > 10000 nM | 33 nM | Cn1c(=O)n(Cc2ccc(-c3nnc(C(F)F)o3)cn2)c(=O)c2cc(-c3cccnc3)ccc21 [Compound 91, 3-((5-(5-(difluoromethyl)-1,3,4-oxadiazole-2-yl)pyridine-2-yl)methyl)-1-methyl-6-(pyridine-3-yl)quinazoline-2,4(1H,3H)-dione] |
| > 10000 nM | 145 nM | CC1(C)C(=O)N(Cc2ccc(-c3nnc(C(F)F)o3)cc2F)C(=O)c2ccccc21 [Compound 7, 2-(4-(5-(difluoromethyl)-1,3,4-oxadiazole-2-yl)-2-fluorobenzyl)-4,4-dimethylisoquinoline-1,3(2H,4H)-dione] |
| > 10000 nM | 26 nM | CCN1CCN(c2ccc3c(c2)C(=O)N(Cc2ccc(-c4nnc(C(F)F)o4)cn2)C(=O)C3(C)C)CC1 [Compound 129, 2-((5-(5-(difluoromethyl)-1,3,4-oxadiazole-2-yl)pyridine-2-yl)methyl)-7-(4-ethylpiperazine-1-yl)-4,4-dimethylisoquinoline-1,3(2H,4H)-dione] |
| > 10000 nM | 88 nM | Cc1noc(C)c1-c1cccc2c1C(=O)N(Cc1ccc(-c3nnc(C(F)F)o3)cn1)C(=O)C2(C)C [Compound 96, 2-((5-(5-(difluoromethyl)-1,3,4-oxadiazole-2-yl)pyridine-2-yl)methyl)-8-(3,5-dimethylisooxazole-4-yl)-4,4-dimethylisoquinoline-1,3(2H,4H)-dione] |
| > 10000 nM | 19 nM | CN1CCC(c2ccc3c(c2)C(C)(C)C(=O)N(Cc2ccc(-c4nnc(C(F)F)o4)cn2)C3=O)CC1 [Compound 44, 2-((5-(5-(difluoromethyl)-1,3,4-oxadiazole-2-yl)pyridine-2-yl)methyl)-4,4-dimethyl-6-(1-methylpiperidine-4-yl)isoquinoline-1,3(2H,4H)-dione] |
| > 10000 nM | 310 nM | CC(C)(C)OC(=O)N1CCC(Cn2c(=O)n(Cc3ccc(-c4nnc(C(F)F)o4)cn3)c(=O)c3cc(F)ccc32)CC1 [Compound 72, Tert-butyl 4-((3-((5-(5-(difluoromethyl)-1,3,4-oxadiazole-2-yl)pyridine-2-yl)methyl)-6-fluoro-2,4-dioxo-3,4-dihydroquinazoline-1(2H)-yl)methyl)piperidine-1-carboxylate] |
| > 10000 nM | 165 nM | COCCn1c(=O)n(Cc2ccc(-c3nnc(C(F)F)o3)cn2)c(=O)c2ccccc21 [Compound 17, 3-((5-(5-(difluoromethyl)-1,3,4-oxadiazole-2-yl)pyridine-2-yl)methyl)-1-(2-methoxyethyl)quinazoline-2,4(1H,3H)-dione] |
| > 10000 nM | 61 nM | CC1(C)C(=O)N(Cc2ccc(-c3nnc(C(F)F)o3)cn2)C(=O)c2ccc(C3CCN(CC4CCOCC4)CC3)cc21 [Compound 62, 2-((5-(5-(difluoromethyl)-1,3,4-oxadiazole-2-yl)pyridine-2-yl)methyl)-4,4-dimethyl-6-(1-((tetrahydro-2H-pyran-4-yl)methyl)piperidine-4-yl)isoquinoline-1,3(2H,4H)-dione] |
| > 10000 nM | 79 nM | COCCn1c(=O)c2ccccc2n(Cc2ccc(-c3nnc(C(F)F)o3)cn2)c1=O [Compound 76, 1-((5-(5-(difluoromethyl)-1,3,4-oxadiazole-2-yl)pyridine-2-yl)methyl)-3-(2-methoxyethyl)quinazoline-2,4(1H,3H)-dione] |
| > 10000 nM | 21 nM | CC1(C)C(=O)N(Cc2ccc(-c3nnc(C(F)F)o3)cn2)C(=O)c2ccc(N3CCOCC3)cc21 [Compound 24, 2-((5-(5-(difluoromethyl)-1,3,4-oxadiazole-2-yl)pyridine-2-yl)methyl)-4,4-dimethyl-6-morpholinoisoquinoline-1,3(2H,4H)-dione] |
| > 10000 nM | 98 nM | CN1CCC(Cn2c(=O)n(Cc3ccc(-c4nnc(C(F)F)o4)cn3)c(=O)c3cc(F)ccc32)CC1 [Compound 73, 3-((5-(5-(difluoromethyl)-1,3,4-oxadiazole-2-yl)pyridine-2-yl)methyl)-6-fluoro-1-((1-methylpiperidine-4-yl)methyl)quinazoline-2,4(1H,3H)-dione] |
| > 10000 nM | 43 nM | CC1(C)C(=O)N(Cc2ccc(-c3nnc(C(F)F)o3)cn2)C(=O)c2cc(C3=CCS(=O)(=NC(=O)C(F)(F)F)CC3)ccc21 (centres unmarked) [Compound 125, N-(4-(2-((5-(5-(difluoromethyl)-1,3,4-oxadiazole-2-yl)pyridine-2-yl)methyl)-4,4-dimethyl-1,3-dioxo-1,2,3,4-tetrahydroisoquinoline-7-yl)-1-oxydo-3,6-dihydro-2H-1λ^6-thiopyran-1-ylidene)-2,2,2-trifluoroacetamide] |
| > 10000 nM | 427 nM | CC(C)(C)OC(=O)N1CC=C(c2ccc3c(c2)C(=O)N(Cc2ccc(-c4nnc(C(F)F)o4)cn2)C(=O)C3(C)C)CC1 [Compound 53, tert-butyl 4-(2-((5-(5-(difluoromethyl)-1,3,4-oxadiazole-2-yl)pyridine-2-yl)methyl)-4,4-dimethyl-1,3-dioxo-1,2,3,4-tetrahydroisoquinoline-7-yl)-3,6-dihydropyridine-1(2H)-carboxylate] |
| > 10000 nM | 132 nM | Cn1c(=O)n(Cc2ccc(-c3nnc(C(F)F)o3)cn2)c(=O)c2ccccc21 [Compound 18, 3-((5-(5-(difluoromethyl)-1,3,4-oxadiazole-2-yl)pyridine-2-yl)methyl)-1-methylquinazoline-2,4(1H,3H)-dione] |
| > 10000 nM | 141 nM | O=c1c2ccccc2n(Cc2ccc(-c3nnc(C(F)F)o3)cn2)c(=O)n1CCc1ccccc1 [Compound 77, 1-((5-(5-(difluoromethyl)-1,3,4-oxadiazole-2-yl)pyridine-2-yl)methyl)-3-phenethylquinazoline-2,4(1H,3H)-dione] |
| > 10000 nM | 54 nM | Cn1c(=O)n(Cc2ccc(-c3nnc(C(F)F)o3)cn2)c(=O)c2cc(-c3ccccc3F)ccc21 [Compound 89, 3-((5-(5-(difluoromethyl)-1,3,4-oxadiazole-2-yl)pyridine-2-yl)methyl)-6-(2-fluorophenyl)-1-methylquinazoline-2,4(1H,3H)-dione] |

| Compound | IC50 [1] | IC50 [2] |
| --- | --- | --- |
| CN(C)CCN(C)c1ccc2c(c1)C(C)(C)C(=O)N(Cc1ccc(-c3nnc(C(F)F)o3)cn1)C2=O [Compound 38, 2-((5-(5-(difluoromethyl)-1,3,4-oxadiazole-2-yl)pyridine-2-yl)methyl)-6-((2-(dimethylamino)ethyl)(methyl)amino)-4,4-dimethylisoquinoline-1,3(2H,4H)-dione] | > 10000 nM | 24 nM |
| Cn1c(=O)n(Cc2ccc(-c3nnc(C(F)F)o3)cn2)c(=O)c2cc(-c3cccc(F)c3)ccc21 [Compound 90, 3-((5-(5-(difluoromethyl)-1,3,4-oxadiazole-2-yl)pyridine-2-yl)methyl)-6-(3-fluorophenyl)-1-methylquinazoline-2,4(1H,3H)-dione] | > 10000 nM | 41 nM |
